Measurements: patent US20250295668A1, “METHODS FOR INDUCING COLANIC ACID BIOSYNTHESIS” (priority 2024, published 2025)
In brackets after ≈: the same amount, converted by molar mass. Entries after “also recorded” stand apart in the source; their conditions may differ. Where two headings read alike, the source gives them in different places.

Tests used:
[1] = PMID 9165537; cited from earlier work
E. coli [2] = conditions: previously reported, cited from earlier work
[3] = test system: cps operon in commensal E. coli; test: cps G-R reporter bacteria from mouse ileum, in vivo imaging (GFP-to-RFP ratio); design: species or system C57BL6 mice; conditions: for increase in GFP-to-RFP ratio: oral gavage plus drinking water, 3 hours, ileum
Description: In vivo imaging: Co-housed female C57BL6 mice received cps G-R reporter E. coli at 1×10^8 CFU per 100 mL through distilled drinking water. The bacteria-containing water was prepared and replaced daily for three days continuously. […] Luminal content from the ileum was collected and processed for imaging bacteria from in vivo samples immediately after euthanasia as previously described [PMID: 34428120]. In brief, the ileum sections were collected and then finely minced by a pair of iris scissors in 2 mL 1×PBS. Samples were then vortexed for 1 minute and filtered with a sterile cell strainer (40 μm) to remove the tissue debris. The microbiota was washed 3 times with 1.5 mL PBS by centrifugation (15,000×g, 3 min) and then resuspended in 0.1 mL PBS for imaging.
The cps G-R reporter strain was introduced to wild-type C57B6 mice through drinking water, followed by cephaloridine administration through a single-dose oral gavage and cephaloridine-containing water for 3 hours, which allowed for sufficient intestinal transit time [PMID: 23915679] and E. coli turnover time [PMID: 26392213] for optimal dosing (FIG. 3E). […] The luminal content of mice ileum was harvested after 3 hours of cephaloridine administration and were imaged for fluorescence.

cps promoter = test: cps G-R reporter bacteria imaging in vitro (GFP-to-RFP ratio); format: cell-based, E. coli; conditions: low-dose cephaloridine, cultured at 37° C.
Description: For high-resolution imaging, rph1 ilvG rfb-50 attL (Psyn135::mcherry <FRT>) attHKPR218 (cps G-R reporter strain), a genetically modified strain derived from MG1655 (genotype rph1 ilvG rfb-50), was generated. pPR218, integrated at the HK site, encodes Pcps::sfGFP and chloramphenicol resistance.
In vitro imaging: The cps G-R reporter strain was cultured in M9 minimal medium. Bacteria culture was harvested at an OD600 of 0.6. For bacteria imaging, 1 μL of the culture was loaded onto a 1% low-melt agarose pad made with M9 medium [PMID: 23680982].
MG1655, a human-derived commensal K12 strain, was treated with a low dose of cephaloridine at 37° C., which induced colanic acid production (FIG. 3A). […] To determine whether cephaloridine activates cps expression in a commensal bacterium in a mammalian host, MG1655 was engineered as shown in FIG. 3C to express GFP under the control of the cps promoter and to constitutively express RFP under a synthetic promoter syn135, resulting in the cps G-R reporter strain. […] The luminal content of mice ileum was harvested after 3 hours of cephaloridine administration and were imaged for fluorescence. […]

E. coli [4] = test: Bacterial growth under low-dose cephaloridine; format: cell-based; conditions: low-dose cephaloridine vs vehicle-treated E. coli
cps operon = test: Disk diffusion assay for cps induction, SG20781 cpsB::lacZ reporter; format: cell-based, E. coli; conditions: SG20781, filter paper disks 10 or 100 μg, 24 hours at 37° C.
Description: For antibiotic screening targeting cps expression, the SG20781 strain (MC4100 lon+cpsB10::lacZ Mu-immλ) was used. The bacteria were cultured overnight at 37° C. in Luria-Broth (LB) medium and evenly plated on X-gal (40 μg/mL) supplemented LB agar plates, and incubated overnight.
E. coli strain SG20781 was used to assess antibiotic cps induction via disk diffusion as previously described [PMID: 14553918]. In brief, an overnight bacteria culture was spread onto LB agar containing 0.1 mg ml-1 5-bromo-4-chloro-3-indolyl-β-D-galactoside (X-gal). […] The soaked filter papers were placed onto the bacteria-seeding plates and incubated for 24 hours at 37° C.
Certain β-lactam antibiotics trigger the overexpression of the cps operon in E. coli [PMID: 14553918]. To validate this finding, a disk diffusion assay was performed using SG20781, an E. coli strain that harbors a LacZ reporter for the cps operon transcriptional regulation. Using a colorimetric assay, an increased level of […] reacts with X-gal, resulting in an intensified blue coloration as a result of the transcriptional up-regulation of the cps operon.

[5] = Age-related metabolic dysfunction in mice, cephaloridine in drinking water; format: in vivo; conditions: oral 2 μg/mL
Description: Methods: Co-housed 12-month-old […] mice were given MG1655 E. coli at 1×10^8 CFU/mL through distilled drinking water (100 mL) for 24 hours to maintain E. coli occupancy in the mouse gut microbiota. Subsequently, mice received 2 μg/mL cephaloridine through drinking water (100 mL) for 60 hours. […] This entire procedure was then repeated. Cephaloridine dosages were calculated as follows. Briefly, a typical mouse used in this study consumed 5-10 ml of water per day and weighed between 30-40 g. Using the 2 μg/mL concentration, a lower bound of 0.25 mg/kg (0.002 mg/mL×5 mL=0.04 kg) and a higher bound of 0.67 mg/kg (0.002 mg/mL×10 mL=0.03 kg) were identified.

PBP1a = PBP1a (Escherichia coli, UniProt P02918); conditions: E. coli, literature; cited from earlier work
PBP1a, sequence (P02918 whole entry): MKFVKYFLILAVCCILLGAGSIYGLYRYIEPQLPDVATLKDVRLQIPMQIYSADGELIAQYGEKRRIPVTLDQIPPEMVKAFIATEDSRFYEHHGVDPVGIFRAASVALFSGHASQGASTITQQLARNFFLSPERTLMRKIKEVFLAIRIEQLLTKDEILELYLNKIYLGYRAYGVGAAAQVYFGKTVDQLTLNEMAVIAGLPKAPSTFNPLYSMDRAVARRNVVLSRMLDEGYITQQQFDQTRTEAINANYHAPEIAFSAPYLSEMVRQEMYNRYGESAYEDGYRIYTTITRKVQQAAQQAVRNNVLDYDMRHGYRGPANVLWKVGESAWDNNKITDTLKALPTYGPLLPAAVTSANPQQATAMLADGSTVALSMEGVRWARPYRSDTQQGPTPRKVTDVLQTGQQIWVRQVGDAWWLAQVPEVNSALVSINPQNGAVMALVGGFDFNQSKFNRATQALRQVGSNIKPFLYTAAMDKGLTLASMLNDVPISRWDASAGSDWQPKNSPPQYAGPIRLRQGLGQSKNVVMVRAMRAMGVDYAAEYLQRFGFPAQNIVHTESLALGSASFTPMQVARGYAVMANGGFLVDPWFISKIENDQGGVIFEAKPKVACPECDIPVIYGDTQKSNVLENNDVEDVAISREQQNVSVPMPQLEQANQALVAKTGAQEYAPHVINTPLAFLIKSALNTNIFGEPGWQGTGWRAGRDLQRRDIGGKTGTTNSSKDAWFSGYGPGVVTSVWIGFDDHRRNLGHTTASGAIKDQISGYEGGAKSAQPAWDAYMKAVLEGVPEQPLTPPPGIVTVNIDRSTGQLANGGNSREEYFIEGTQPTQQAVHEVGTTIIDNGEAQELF

In the case of `O=C(Cc1cccs1)N[C@@H]1C(=O)N2C(C(=O)[O-])=C(C[n+]3ccccc3)CS[C@H]12` [cephaloridine], the “absorption after oral administration” value [1] is listed as “poorly absorbed; also recorded: near-zero absorption”, the oral bioavailability [1] is listed as “extremely low oral bioavailability” and the MIC (E. coli [2]; PMID 380457) is listed as 2 µg/mL (≈ 4.81 µM). For the same compound, the MIC (E. coli [2]; PMID 9371340) was 4 µg/mL (≈ 9.63 µM), the “cps operon induction in the mouse intestine” value ([3]; 4 μg/mL dose) was “induced the cps operon” and the “increase in GFP-to-RFP ratio” value ([3]; 4 μg/mL) was 13%. The “cps operon induction in the mouse intestine” value ([3]; 8 μg/mL dose) was “failed to exert this effect”, the “increase in GFP-to-RFP ratio” value ([3]; 8 μg/mL) was “no such increase” and the “increase in GFP-to-RFP intensity ratio” value (cps promoter) was 20%. The “effect on bacterial growth” value (E. coli [4]) was “did not hinder bacteria growth; also recorded: does not alter bacterial growth”, the “cps induction (blue coloration)” value (cps operon) was “promote various shades of blue coloration” and the “increase in plasma insulin between 12 and 18 months of age vs controls” value ([5]; female mice) was “lower”. For the same compound, the “age-related increase in LDL:HDL ratio” value ([5]; male mice) was “suppressed”, the “plasma HDL” value ([5]; male mice) was “not affected” and the “plasma LDL between 12 and 18 months of age” value ([5]; male mice) was “remain nearly unchanged”. The “binding to PBP1a” value (PBP1a) was “primarily binds to PBP1a”.
